In article PMC3948622, “Docking, Synthesis and Antiproliferative Activity of N-Acylhydrazone Derivatives Designed as Combretastatin A4 Analogues” (PLoS ONE, 2014):
Values after ≈ are worked out from the molar mass of the structure shown. Where two headings read alike, the source gives them in different places.

Assays:
[1] = test system: SF-295 (glioblastoma); experiment: Hollow Fiber Assay (HFA), SF-295 fibers s.c. in mice; assay type: in vivo, BALB/c nude mice; details: 25 mg/kg/day intraperitoneally, 4 days
Experimental: (§1) Cell culture of SF-295 (glioblastoma) and HCT-116 (colon carcinoma) was performed in RPMI 1640 medium supplemented with 10% fetal bovine serum, 2 mM glutamine, at 37°C with 5% CO2.
(§2) Polyvinylidene fluoride (PVDF) HFs with a 1-mm internal diameter and a molecular weight cutoff point of 500 kDa were used (Spectrum Laboratories, Houston, TX). The fibers were cut into pieces 12–15 cm long, washed 2× with sterile distilled water and kept in sterile conditions.
(§3) Before use, under sterile conditions, the fibers were incubated in complete RPMI with 20% fetal bovine serum (FBS) overnight (packaging time). Cell viability was assessed by trypan blue exclusion assay. Then, a cell suspension of 7.0×10^6 cell/mL at 4°C was injected into the fiber, with the ends thereof immediately heat-sealed. The fibers were cut into 2 cm each, transferred to petri plates and incubated in complete RPMI medium for 24 h prior to implantation in mice. Each cell was injected into one fiber of a different color (HCT-116, yellow fibers; SF-295, blue fibers).
(§4) Each animal received 2 fibers at s.c. site. All incisions were sealed with a surgical stapler.
(§5) Tumor cell proliferation was quantified through the ability of living cells to reduce the yellow dye 3-(4,5-dimethyl-2-thiazolyl)-2,5-diphenyl-2H-tetrazolium bromide (MTT, Sigma Aldrich) to a purple formazan product. For this purpose, the fibers removed from animals were incubated with MTT 1 mg/mL in 6-well plates during 4 h at 37°C, 5% CO2 and 95% humidity. The MTT solution was aspirated; fibers were washed with saline solution containing protamine sulphate 2.5% and incubated in protamine solution overnight at 4°C. Fibers were transferred to 24 well plates, cut into 2 or 3 pieces and put to dry. The formazan was dissolved in […] of DMSO, aliquots (150 uL) were transferred to 96 well plates and absorbance was measured at 595 nm (DTX-880, Beckman Coulter).

[2] = test system: HCT-116 (colon carcinoma); experiment: Hollow Fiber Assay (HFA), HCT-116 fibers s.c. in mice; assay type: in vivo, BALB/c nude mice; details: 25 mg/kg/day intraperitoneally, 4 days
Experimental: as §1, §2, §3, §4, §5

[3] = test system: BALB/c nude mice; details: intraperitoneally for 4 consecutive days, HFA
Experimental: During the HFA, tumor cells (i.e., SF-295 and HCT-116) were cultivated within biocompatible, semipermeable polyvinylidene fluoride hollow fibers (HFs) and subcutaneously (s.c.) implanted within the dorsal portion of BALB/c nude mice. LASSBio-1586 (5b) and 5-Fluorouracil (5-FU), which was the positive control, were administered intraperitoneally for 4 consecutive days. On day 5, the fibers were removed to quantify the antiproliferative activity of 5b and 5-FU.
A total of 26 female BALB/c nude (nu/nu) mice aging 6–8 weeks were obtained from the animal facilities of State University of São Paulo (USP), Faculty of Medicine, São Paulo (SP), Brazil. They were kept in well-ventilated and sterile cages (Alesco, São Paulo) under standard conditions of light (12 h with alternative day and night cycles) and temperature (22±1°C) and were housed with access to commercial sterile rodent stock diet (Nutrilabor, São Paulo, Brazil) and water ad libitum. As previously mentioned procedures are in accordance with guidelines for the welfare of animals in experimental neoplasia and with national and international standard on the care and use of experimental laboratory animals and were approved by the local Ethical Committee on Animal Research (Process No. 102/2007).
Mice were anaesthetized with ketamine (90 mg/kg) - xylazine (4.5 mg/kg) (Sigma Aldrich). Groups were divided into: a) Negative control (DMSO 5%, n = 6); b) Positive control (5-Flouoruracil, 5-FU, 25 mg/kg/day, n = 7) (Sigma Aldrich); c) LASSBio-1586 (5b; 25 mg/kg/day, n = 7); d) LASSBio-1586 (5b; 50 mg/kg/day, n = 6). A small incision in the neck was incised to permit subcutaneous (s.c.) implantation of the fibers in the dorsal part of the animal. Each animal received 2 fibers at s.c. site. All incisions were sealed with a surgical stapler. The test compounds were administered intraperitoneally during 4 consecutive days. On day 5, fibers were removed to quantify the antiproliferative capacity as described above.

[4] = test system: HL-60 (human leukemia); experiment: In vitro antiproliferative MTT assay, HL-60; assay type: cell-based; details: for IC50: Homo sapiens, HL-60; for SI Lymphocyte/ HL-60: IC50 for human lymphocytes/IC50 for cancer cell line
Experimental: (§6) The antiproliferative activity of compounds 5a–r was determined based on an MTT assay and using CA-4 as standard against the tumor cell lines: HL-60 (human leukemia), SF-295 (human glioblastoma), MDA-MB435 (melanoma), PC3M (prostate cancer), OVCAR-8 (ovaries adenocarcinoma), NCI-H258M (pulmonary bronchio-alveolar carcinoma) and HCT-8 (adenocarcinoma ileocecal) (Table 2). To determine the selectivity index of compounds 5a–r, their antiproliferative profile was also evaluated toward human lymphocytes (Table 2).
(§7) Compounds (0.009–5 µg/mL) were tested for cytotoxic activity against selected cancer cell lines: SF-295 (glioblastoma), HCT-8 (colon), MDAMB-435 (melanoma), HL60 (leukemia), PC3M (prostate cancer), OVCAR-8 (ovaries adenocarcinoma) and NCI-H258M (pulmonary bronchio-alveolar carcinoma). All cell lines were kindly obtained from the National Cancer Institute (Bethesda, MD, USA).Tumor cell proliferation was quantified through the ability of living cells to reduce the yellow dye 3-(4,5-dimethyl-2-thiazolyl)-2,5-diphenyl-2H-tetrazolium bromide (MTT, Sigma Aldrich)) to a purple formazan product and absorbance was measured at 595 nm (DTX-880, Beckman Coulter).

[5] = test system: SF-295 (human glioblastoma); experiment: In vitro antiproliferative MTT assay, SF-295; assay type: cell-based; details: for IC50: Homo sapiens, SF-295, read-out: IC50 SF295; for SI Lymphocyte/ SF-295: IC50 for human lymphocytes/IC50 for cancer cell line
Experimental: as §6, §7

[6] = test system: HCT-8 (adenocarcinoma ileocecal); experiment: In vitro antiproliferative MTT assay, HCT-8; assay type: cell-based; details: for IC50: Homo sapiens, HCT-8; for SI Lymphocyte/ HCT-8: IC50 for human lymphocytes/IC50 for cancer cell line
Experimental: as §6, §7

[7] = test system: tumor cell lines; experiment: In vitro antiproliferative MTT assay, tumor cell lines (summary over the panel); assay type: cell-based
Experimental: as §6, §7

[8] = test system: MDA-MB435 (melanoma); experiment: In vitro antiproliferative MTT assay, MDA-MB435; assay type: cell-based; details: Homo sapiens, MDA-MB-435
[9] = Aqueous solubility assay by ultraviolet spectroscopy; assay type: physicochemical; details: water (saturated aqueous solution), thermodynamic from solid, 2 hours at 37°C, read-out: Aq. Solubility
Experimental: Ultraviolet spectroscopy was performed using Femto spectrophotometer. The wavelength used in solubility assay was determined by the -λ max characteristic of each compound. Spectra were analyzed in Femtoscan software. Mass spectrometry was obtained by positive ionization at Bruker AmaZon SL and data analyzed in Compass 1.3.SR2 software.
The solubility assay was performed considering the absorptivity of compounds in ultraviolet spectroscopy as described by Schneider and coworkers. The assay wavelength was determined by the λ max characteristic of each compound.
Saturated aqueous solutions were prepared (0.01 mg/mL) and were kept under stirring for 2 hours at 37°C. The supernatant was filtered in 0,45 µm filters and transferred to a quartz cuvette (10 mm) to spectra acquisition.
Solubility was determined by linear regression using as graph plots, solutions prepared by dilutions of the original solution in methanol. The data were obtained in triplicates and the mean values were used to the graph plots. The correlation coefficient (R^2) values were between 0.9972 and 0.9999.

[10] = test system: MDA-MB435 (melanoma); experiment: In vitro antiproliferative MTT assay, MDA-MB435; assay type: cell-based; details: IC50 for human lymphocytes/IC50 for cancer cell line
Experimental: as §6, §7

[11] = test system: PC3M (prostate cancer); experiment: In vitro antiproliferative MTT assay, PC3M; assay type: cell-based; details: for IC50: Homo sapiens, PC-3M, Table 2, MTT; for SI Lymphocyte/ PC3M: IC50 for human lymphocytes/IC50 for cancer cell line
Experimental: as §6, §7

[12] = test system: OVCAR-8 (ovaries adenocarcinoma); experiment: In vitro antiproliferative MTT assay, OVCAR-8; assay type: cell-based; details: for IC50: Homo sapiens, OVCAR-8, Table 2, MTT; for SI Lymphocyte/ OVCAR-8: IC50 for human lymphocytes/IC50 for cancer cell line
Experimental: as §6, §7

[13] = test system: NCI-H358M (pulmonary bronchio-alveolar carcinoma); experiment: In vitro antiproliferative MTT assay, NCI-H358M; assay type: cell-based; details: for SI Lymphocyte/ NCI-H358M: IC50 for human lymphocytes/IC50 for cancer cell line; for IC50: NCI-H358M, Table 2, MTT
[14] = test system: human lymphocytes; experiment: In vitro antiproliferative assay, human lymphocytes; assay type: cell-based; details: Lymphocyte, Table 2
Experimental: as §6
To investigate the selective cytotoxic activity of the N-acylhydrazones derivatives (5a–r), their antiproliferative potency was also assessed toward human lymphocytes and the results were compared to the data from CA-4 ([…]). The selectivity index (SI), which was the IC50 for human lymphocytes/IC50 for cancer cell lines after treatment with CA-4 and N-acylhydrazones (5a–r), was calculated, as depicted in Table 3. […] The best comparative selectivity indices (CA-4 vs 5b) were obtained from the SF-295 (SI = 13), MDA-MB435 (SI = 42) and NCI-H258M (SI = 9.5) tumor cell lines, and the worst results were found for OVCAR-8 (SI = 0.5).

Row | Compound | melting point [°C] | solubility at 2 h [9] [µg/mL] | IC50 ([4]; Table 2, MTT) [µM] | SI Lymphocyte/ HL-60 [4] | IC50 ([5]; Table 2, MTT) [µM] | SI Lymphocyte/ SF-295 [5] | IC50 ([6]; Table 2, MTT) [µM] | SI Lymphocyte/ HCT-8 [6] | SI Lymphocyte/ MDA-MB345 [10] | IC50 [11] [µM] | SI Lymphocyte/ PC3M [11] | IC50 [12] [µM] | SI Lymphocyte/ OVCAR-8 [12] | SI Lymphocyte/ NCI-H358M [13] | IC50 [13] [µM] | IC50 [14] [µM] | IC50 ([8]; Table 2, MTT) [µM] | further results
1 | O=c1[nH]cc(F)c(=O)[nH]1 [Compound 5-FU, 5-Fluorouracil, reference compound] |  |  |  |  |  |  |  |  |  |  |  |  |  |  |  |  |  | Inhibition (%) SF-295 [1]: 65.40%; Proliferation (OD595 nm) SF-295 ([1]; mean ± S.E.M.): 0.52±0.08 OD595 nm; Inhibition (%) HCT-116 [2]: 62.08%; Proliferation (OD595 nm) HCT-116 ([2]; mean ± S.E.M.): 0.59±0.10 OD595 nm; deaths of mice during treatment [3]: no deaths occurred
2 | COc1cc(NC(=O)N/N=C/c2ccccc2)cc(OC)c1OC [Compound 12, (E)-2-benzylidene-N-(3,4,5-trimetoxyphenyl) hydrazinecarboxamide] | 217 |  |  |  |  |  |  |  |  |  |  |  |  |  |  |  |  | IC50 ([4]; Table 4): > 25 µM; IC50 ([5]; Table 4): > 25 µM; IC50 ([6]; Table 4): > 25 µM; cytotoxic activity (in words) ([7]; HL-60, SF296, HCT-8 and MDA-MB435 tumor cells): inactive; IC50 ([8]; Table 4): > 25 µM
3 | COc1cc(C(=O)N/N=C/c2ccc(-c3ccccc3)cc2)cc(OC)c1OC [Compound 5n, (E)-N′-(biphenyl-4-ylmethylene)-3,4,5-trimethoxyibenzohydrazide] | 187 to 188 | 0.0606 (≈ 0.155 µM) | > 25 | 1.0 | > 25 | 1.0 | > 25 | 1.0 | 1.0 | > 25 | 1 | > 25 | 1 | 1 | > 25 | > 64.1 | > 25 | IC50 ([7]; summary in text over the cell lines of Table 2, read-out: IC50 (antiproliferative potency over the tumor cell lines)): > 25 µM
4 | COc1cc(C(=O)N/N=C/c2coc3ccccc3c2=O)cc(OC)c1OC [Compound 5j, (E)-3,4,5-trimethoxy-N′-((4-oxo-4H-chromen-3-yl)methylene)benzohydrazide] | 205 to 206 | 0.783 (≈ 2.05 µM) | > 25 | 1 | > 25 | 1 | 23.4 | 2.8 | 1 | > 25 | 1 | > 25 | 1 | 1 | > 25 | > 65.4 | > 25 | 
